Publication PMC6369240, “Biological evaluation and structure activity relationship of 9-methyl-1-phenyl-9H-pyrido[3,4-b]indole derivatives as anti-leishmanial agents” (Bioorganic Chemistry, 2019)

Tests used:
[1] = HeLa cell cytotoxicity, Alamar blue assay; type: cell-based; conditions: human; HeLa cells, ~65 h incubation plus 5 h Alamar Blue
Description: HeLa cell cytotoxicity studies were carried out as described previously. Briefly, the cells were cultured in DMEM supplemented with 10% fetal calf serum and 2 mM L-glutamine. Cells were plated at initial cell concentration of 2 × 10^4 cells/well and incubated with the compounds for ∼65 h prior to addition of Alamar Blue solution for further 5 h.

[2] = tested on: L. infantum JPCM5 MCAN/ES/98/LLM-87 promastigotes; assay: L. infantum promastigote assay (Alamar blue); type: cell-based, Leishmania infantum; conditions: for S.I (CC50/IC50), L. infantum promastigote: HeLa CC50 / L. infantum promastigote EC50; for EC50: Leishmania infantum, 72 h, Alamar blue
Description: (§1) Anti-leishmanial activity of these analogues was determined by evaluating their inhibition activity against both promastigote, amastigote forms of Leishmania infantum and Leishmania donovani strains. […] Anti-leishmanial drugs miltefosine and pentamidine were used as standards for comparison purpose.
Anti-promastigote activity of these reported β-carboline derivatives was determined by Alamar blue assay method.
(§2) L. donovanipromastigotes were cultured at 37 °C in M199 medium supplemented with 10% heat-inactivated fetal calf serum. L. infantum JPCM5 MCAN/ES/98/LLM-87 promastigotes were cultured at 26 °C in modified Eagle’s medium (HOMEM). Parasites were incubated with serial dilutions of compounds for 72 h, followed by Alamar blue-based assay as previously described.

[3] = tested on: L. infantum JPCM5 MCAN/ES/98/LLM-87 axenic amastigotes; assay: L. infantum axenic amastigote assay (Alamar blue); type: cell-based, Leishmania infantum; conditions: for S.I (CC50/IC50), L. infantum axenic amastigote: HeLa CC50 / L. infantum axenic amastigote EC50; for EC50: Leishmania infantum, 72 h, Alamar blue
Description: Alamar blue assay method was used to determine inhibition potential of these β-carboline derivatives against (human life stage forms) axenic amastigotes.
(§3) L. donovaniLdBOB axenic amastigotes or L. infantum JPCM5 MCAN/ES/98/LLM-87 were cultured at 37 °C in modified Eagle’s medium (HOMEM; L. infantum) and axenic amastigotes were incubated for 72 h with compounds, followed by Alamar blue-based assay as previously described.

[4] = tested on: L. donovani promastigotes; assay: L. donovani promastigote assay (Alamar blue); type: cell-based, Leishmania donovani; conditions: for S.I (CC50/IC50), L. donovani promastigote: HeLa CC50 / L. donovani promastigote EC50; for EC50: Leishmania donovani, 72 h, Alamar blue
Description: as §1
L. donovani promastigote inhibition potency of these reported β-carboline derivatives was determined by Alamar blue assay method.
as §2

[5] = tested on: L. donovani LdBOB axenic amastigotes; assay: L. donovani axenic amastigote assay (Alamar blue); type: cell-based, Leishmania donovani; conditions: for S.I (CC50/IC50), L. donovani axenic amastigote: HeLa CC50 / L. donovani axenic amastigote EC50; for EC50: 72 h, Alamar blue
Description: as §3

[6] = tested on: L. donovani LdBOB intracellular amastigotes in PMA differentiated THP-1 cells; assay: Intra macrophage L. donovani (amastigote) assay in THP-1 cells; type: cell-based, Leishmania donovani; conditions: for S.I (CC50/IC50), L. donovani intracellular amastigote: HeLa CC50 / L. donovani intracellular amastigote EC50; for EC50: THP-1 macrophages, 72 h, microscopy readout
Description: Although, axenic amastigotes assay most commonly used to screen new leishmanial agents are different from intracellular amastigotes in terms of protein expression and drug susceptibility. […] THP-1 (human monocytic leukemia) cells were a kind gift from Dr Susan Wylie (Dundee) and maintained in minimal essential medium plus 10% (vol/vol) FBS. […] Briefly, THP-1 cells (20,000 per well, 200 μL) were plated into 96 well plates in presence of 10 nM PMA and incubated at 37 °C in 5% CO2 atmosphere for 75 h. […] Any remaining extracellular amastigotes were removed and the adhered cells were washed with the same supplemented PBS solution as above. Pre-aliquoted compounds in a serial dilution were added from another plate, such that the total well volume was 200 μL and incubated for further 72 h. Cells were fixed with 100% methanol, stained with Giemsa and examined microscopically.

[7] = Leishmania donovani, THP-1, 72 h

| Structure (SMILES) | CC50 [1] | S.I (CC50/IC50), L. infantum promastigote [2] | EC50 [2] | S.I (CC50/IC50), L. infantum axenic amastigote [3] | EC50 [3] | S.I (CC50/IC50), L. donovani promastigote [4] | EC50 [4] | S.I (CC50/IC50), L. donovani axenic amastigote [5] | EC50 ([5]; Leishmania donovani) | S.I (CC50/IC50), L. donovani intracellular amastigote [6] | EC50 [6, 7] | melting point | EC50 [6] | EC50 [5] |
| --- | --- | --- | --- | --- | --- | --- | --- | --- | --- | --- | --- | --- | --- | --- |
| Cn1c2ccccc2c2cc(C(=O)N3CCN(c4ccccc4)CC3)nc(-c3ccccc3)c21 [7a, (9-methyl-1-phenyl-9H-pyrido[3,4-b]indol-3-yl)(4-phenylpiperazin-1-yl)methanone] | > 500 µM | >52.9 | 9.45 ± 0.82 µM | >111.1 | 4.5 ± 0.3 µM | >42.0 | 11.9 ± 1.2 µM | 50.0 | 10 ± 0.3 µM | 37.0 | 13.5 ± 2 µM | 232 to 234 °C | – | – |
| Cc1ccc(N2CCN(C(=O)c3cc4c5ccccc5n(C)c4c(-c4ccccc4)n3)CC2)cc1 [7b, (9-methyl-1-phenyl-9H-pyrido[3,4-b]indol-3-yl)(4-p-tolylpiperazin-1-yl)methanone] | > 500 µM | >20.5 | 24.3 ± 1.3 µM | – | – | >35.2 | 14.2 ± 1.2 µM | 86.2 | 5.8 ± 0.3 µM | 63.3 | 7.2 µM | 188 to 190 °C | 7.9 ± 0.4 µM | – |
| Cc1ccccc1N1CCN(C(=O)c2cc3c4ccccc4n(C)c3c(-c3ccccc3)n2)CC1 [7c, (9-methyl-1-phenyl-9H-pyrido[3,4-b]indol-3-yl)(4-o-tolylpiperazin-1-yl)methanone] | > 500 µM | >134.0 | 3.73 ± 0.28 µM | >192.3 | 2.6 ± 0.2 µM | >52.9 | 9.45 ± 0.72 µM | 94.3 | 5.3 ± 0.4 µM | 53.2 | 7.8 µM | 148 to 150 °C | 9.4 ± 1.3 µM | – |
| COc1cccc(N2CCN(C(=O)c3cc4c5ccccc5n(C)c4c(-c4ccccc4)n3)CC2)c1 [7e, (4-(3-methoxyphenyl)piperazin-1-yl)(9-methyl-1-phenyl-9H-pyrido[3,4-b]indol-3-yl)methanone] | > 500 µM | >6.9 | 72.4 ± 6.7 µM | – | – | >17.5 | 28.5 ± 1.8 µM | – | – | – | – | 196 to 198 °C | – | – |
| Cn1c2ccccc2c2cc(C(=O)N3CCN(c4cccc(Cl)c4)CC3)nc(-c3ccccc3)c21 [7h, (4-(3-chlorophenyl)piperazin-1-yl)(9-methyl-1-phenyl-9H-pyrido[3,4-b]indol-3-yl)methanone] | > 500 µM | >9.8 | – | – | – | >125 | 4 ± 0.25 µM | 227.3 | 3.5 µM | 64.1 | 7.9 µM | 130 to 132 °C | 7.8 ± 1.3 µM | 2.2 ± 0.1 µM |
| Cn1c2ccccc2c2cc(C(=O)N3CCN(c4ccccc4Cl)CC3)nc(-c3ccccc3)c21 [7i, (4-(2-chlorophenyl)piperazin-1-yl)(9-methyl-1-phenyl-9H-pyrido[3,4-b]indol-3-yl)methanone] | > 500 µM | >23.0 | 21.7 ± 0.6 µM | – | – | >32.9 | 15.2 ± 0.85 µM | 25.8 | 19.4 ± 1.2 µM | 22.7 | 22 ± 2.1 µM | 152 to 154 °C | – | – |
| Cn1c2ccccc2c2cc(C(=O)N3CCN(c4ccccc4F)CC3)nc(-c3ccccc3)c21 [7l, (4-(2-fluorophenyl)piperazin-1-yl)(9-methyl-1-phenyl-9H-pyrido[3,4-b]indol-3-yl)methanone] | > 500 µM | >7.7 | 64.9 ± 5.7 µM | – | – | >5.8 | 85.9 ± 7.3 µM | – | – | – | – | 168 to 170 °C | – | – |
| Cn1c2ccccc2c2cc(C(=O)N3CCN(c4cccc(Cl)c4Cl)CC3)nc(-c3ccccc3)c21 [7m, (4-(2,3-dichlorophenyl)piperazin-1-yl)(9-methyl-1-phenyl-9H-pyrido[3,4-b]indol-3-yl)methanone] | > 500 µM | >5.3 | 93 ± 7.5 µM | – | – | >4.3 | 118 ± 6.4 µM | – | – | – | – | 166 to 168 °C | – | – |
| Cn1c2ccccc2c2cc(C(=O)N3CCN(Cc4ccccc4)CC3)nc(-c3ccccc3)c21 [7n, (4-benzylpiperazin-1-yl)(9-methyl-1-phenyl-9H-pyrido[3,4-b]indol-3-yl)methanone] | > 500 µM | >24.5 | 20.4 ± 1.4 µM | – | – | >109.4 | 4.57 ± 0.24 µM | 142.9 | 2.2 µM | 89.3 | 5.6 ± 0.9 µM | 158 to 160 °C | – | 3.5 ± 0.2 µM |
| Cn1c2ccccc2c2cc(C(=O)N3CCN(c4ccncc4)CC3)nc(-c3ccccc3)c21 [7o, (9-methyl-1-phenyl-9H-pyrido[3,4-b]indol-3-yl)(4-(pyridin-4-yl)piperazin-1-yl)methanone] | 29.7 ± 1.5 µM | 0.48 | – | – | – | 1.52 | 19.5 ± 2.8 µM | 2.1 | 13.9 ± 0.4 µM | 4.1 | 7.9 µM | 198 to 200 °C | 7.2 ± 0.5 µM | – |
| Cn1c2ccccc2c2cc(C(=O)N3CCN(c4ccccn4)CC3)nc(-c3ccccc3)c21 [7p, (9-methyl-1-phenyl-9H-pyrido[3,4-b]indol-3-yl)(4-(pyridin-2-yl)piperazin-1-yl)methanone] | 273 ± 21.6 µM | 5.97 | 45.7 ± 3.3 µM | – | – | – | 8.5 ± 0.75 µM | 22.2 | 12.3 ± 0.6 µM | 34.6 | 9.4 µM | 174 to 176 °C | 7.9 ± 0.3 µM | – |
| N=C(N)c1ccc(OCCCCCOc2ccc(C(=N)N)cc2)cc1 [Pentamidine, reference compound] | – | – | 8.31 ± 0.18 µM | – | 2.7 ± 0.4 µM | – | 6.4 ± 0.11 µM | – | 1.6 ± 0.1 µM | – | 23.7 ± 1.8 µM | – | – | – |
